Biological target: T1, CHO cells expressing human CB2 receptors (Homo sapiens, UniProt P34972)
T1 construct: expressed in transfected cells; host or cells: CHO cells, stably transfected
Assay: cell-based LANCE cAMP assay
Details: forskolin-stimulated, RO-20-1724 present, FIG. 4
Procedure: FIG. 4 relates to cAMP Assay Results. LANCE signal of CB2 ligands. Stably transfected CHO cells expressing human CB2 receptors were utilized to carry out the LANCE cAMP assay. […] Data is mean±SEM of all experiments of two or more performed in triplicate.
(§1) The antibodies are labeled with Alexa Fluor dye that is sensitive to energy emissions. Briefly, the cell-based LANCE cAMP assays were performed on 384-well ProxiPlates using CHO cells stably expressing the CB2 receptors at density of 2×10^3 cells per well in 5 μL of RPMI-1640 medium (Gibco Laboratories, Grand Island, N.Y.) containing 1% dialyzed FBS, 25 mM HEPES, […], and 200 μg/ml of […]. After incubation overnight, 2.5 μL of cAMP antibody and RO20-1724 (a phosphodiesterase inhibitor) in stimulation buffer (DPBS 1×, containing 0.1% BSA) was added to each well, followed by the addition of 2.5 μL of the compound plus the forskolin complex (an adenyl cyclase activator). After incubation at room temperature for 45 minutes, 10 μL of detection buffer was added into each well. The plate was then incubated at room temperature for 1 hour. The plate was then measured in a Synergy H1 hybrid reader (BioTek) with excitation at 340 nm and emission at 665 nm. The results represent at least two independent experiments each in triplicates. EC50 values were determined by nonlinear regression dose-response curve (GraphPad Prism 5).
as §1, with “Cyclic AMP levels were measured by performing the cell-based LANCE cAMP-384 kit assay (PerkinElmer) as previously described 13-14. The assay is based on the competition between the europium-labeled cAMP tracer complex and sample cAMP for binding sites on cAMP-specific antibodies. The antibodies” for “The antibodies”
The LANCE cAMP assay was carried out to measure the functional activities of our synthesized CB2 selective ligands as previously described 14. Briefly, the assay was performed on 384-well plates using CHO cells stably expressing CB2 receptors in the presence of phosphodiesterase inhibitor, RO-20-1724 and adenyl cyclase activator, forskolin.

T1 sequence (P34972 whole entry): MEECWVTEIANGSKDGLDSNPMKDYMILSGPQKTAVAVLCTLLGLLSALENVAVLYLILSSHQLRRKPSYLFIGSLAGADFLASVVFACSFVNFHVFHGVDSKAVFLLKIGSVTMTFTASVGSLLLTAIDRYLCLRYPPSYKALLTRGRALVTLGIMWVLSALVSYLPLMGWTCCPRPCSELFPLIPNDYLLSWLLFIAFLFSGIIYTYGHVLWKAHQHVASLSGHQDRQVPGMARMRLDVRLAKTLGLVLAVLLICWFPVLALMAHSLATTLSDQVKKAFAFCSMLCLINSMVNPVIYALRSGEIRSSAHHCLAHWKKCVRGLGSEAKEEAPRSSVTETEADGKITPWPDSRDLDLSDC

SMILES	CB2 functional activity (LANCE cAMP signal)
CCN(CC)c1ccc(CN(Cc2cc(OC)c(OC)c(OC)c2)C(=O)c2cccs2)cc1 [Compound 11, N-(4-(diethylamino)benzyl)-N-(3,4,5-trimethoxybenzyl)thiophene-2-carboxamide]	CB2 selective agonist
CCN(CC)c1ccc(CN(Cc2cc(OC)c(OC)c(OC)c2)S(=O)(=O)/C=C/c2ccccc2)cc1 [Compound 15, (E)-N-(4-(diethylamino)benzyl)-2-phenyl-N-(3,4,5-trimethoxybenzyl)ethene-1-sulfonamidebenzenesulfonamide]	inverse agonists
CCN(CC)c1ccc(CN(Cc2cc(OC)c(OC)c(OC)c2)S(=O)(=O)c2ccc(C=O)cc2)cc1 [Compound 18, N-(4-(diethylamino)benzyl)-4-formyl-N-(3,4,5-trimethoxybenzyl)benzenesulfonamide]	inverse agonists

Reference: patent US11059778B2, “Cannabinoid receptor CB2 ligand 4-(aminomethyl)-N, N-dialkylanilines” (UNIVERSITY OF PITTSBURGH—OF THE COMMONWEALTH SYSTEM OF …, priority 2015, dated 2021)
